PubChem BioAssay (NCI)
Several values for one entry are separate records, joined by “and”; a condition that tells them apart may be missing. Equal entries are not always repeated.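 Test compounds were applied to cells in 96-well plates for 48 hours at 5 doses. GI50 = concentration required for 50% inhibition of growth. TGI denotes the concentration required for complete inhibition of growth.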

Legend:
Assay in all cases: NCI tumour cell line growth inhibition, 48 h
[1] = tested on: HT29 colon
[2] = tested on: EKVX NSCLC
[3] = tested on: SNB-78 CNS
[4] = tested on: HS 578T breast
[5] = tested on: NCI-H226 lung
[6] = tested on: UO-31 renal
[7] = tested on: SF-539 CNS
[8] = tested on: A498 renal
[9] = tested on: KM20L2 colon
[10] = tested on: HL-60(TB) leukemia
[11] = tested on: RXF 393 renal
[12] = tested on: T-47D breast
[13] = tested on: OVCAR-4 ovarian
[14] = tested on: SNB-19 CNS
[15] = tested on: MCF7 breast
[16] = tested on: SN12C renal
[17] = tested on: XF 498 CNS
[18] = tested on: LXFL 529 NSCLC
[19] = tested on: HOP-18 NSCLC
[20] = tested on: IGROV1 ovarian
[21] = tested on: OVCAR-3 ovarian
[22] = tested on: UACC-62 melanoma
[23] = tested on: SK-MEL-2 melanoma
[24] = tested on: OVCAR-5 ovarian
[25] = tested on: DU-145 prostate
[26] = tested on: HCC-2998 colon
[27] = tested on: HCT-15 colon
[28] = tested on: 786-0 renal
[29] = tested on: NCI/ADR-RES ovarian
[30] = tested on: MDA-MB-231 breast
[31] = tested on: NCI-H460 lung
[32] = tested on: KM12 colon
[33] = tested on: BT-549 breast
[34] = tested on: HCT-116 colon
[35] = tested on: SK-MEL-5 melanoma
[36] = tested on: SK-MEL-28 melanoma
[37] = tested on: U251 CNS
[38] = tested on: MDA-N
[39] = tested on: SF-268 CNS
[40] = tested on: HOP-92 NSCLC
[41] = tested on: A549 NSCLC
[42] = tested on: PC-3 prostate
[43] = tested on: RPMI-8226 leukemia
[44] = tested on: COLO 205 colon
[45] = tested on: SF-295 CNS
[46] = tested on: NCI-H522 lung
[47] = tested on: ACHN renal
[48] = tested on: SNB-75 CNS
[49] = tested on: NCI-H23 lung
[50] = tested on: DLD-1 colon
[51] = tested on: TK-10 renal
[52] = tested on: MOLT-4 leukemia
[53] = tested on: OVCAR-8 ovarian
[54] = tested on: M19-MEL melanoma
[55] = tested on: DMS 114 small cell lung
[56] = tested on: RXF-631 renal
[57] = tested on: SK-OV-3 ovarian
[58] = tested on: M14 melanoma
[59] = tested on: CAKI-1 renal
[60] = tested on: UACC-257 melanoma
[61] = tested on: LOX IMVI melanoma
[62] = tested on: K-562 leukemia
[63] = tested on: HOP-62 NSCLC
[64] = tested on: SW-620 colon
[65] = tested on: MALME-3M melanoma
[66] = tested on: DMS 273 small cell lung
[67] = tested on: CCRF-CEM leukemia
[68] = tested on: MDA-MB-435

COC1C(O)C(C)OC(OC2C(Oc3cccc4c(O)c5c(=O)oc6ccc(C)c7c(=O)oc(c34)c5c67)OC(C)C3O[C@H](c4ccccc4)OC32)C1O (stereo partly drawn)
TGI [1]: 10200 nM
TGI [2]: 5990 nM
TGI [3]: 4730 nM
TGI [4]: 17900 nM
GI50 [5]: 186 nM
TGI [5]: 836 nM
TGI [6]: 2430 nM
GI50 [7]: 198 nM
TGI [7]: 2230 nM
TGI [8]: 1110 nM
TGI [9]: 2980 nM
TGI [10]: 4530 nM
TGI [11]: 5910 nM
GI50 [12]: 483 nM
TGI [13]: 9750 nM
TGI [14]: 19200 nM
GI50 [15]: 225 nM
TGI [15]: 4120 nM
GI50 [16]: 173 nM
TGI [16]: 6170 nM
TGI [17]: 2210 nM
TGI [18]: 3180 nM
TGI [19]: 13600 nM
TGI [20]: 3420 nM
TGI [21]: 5310 nM
GI50 [22]: 304 nM
TGI [22]: 1900 nM
GI50 [23]: 937 nM
TGI [23]: 6070 nM
TGI [24]: 12700 nM
GI50 [25]: 484 nM
TGI [25]: 3190 nM
GI50 [26]: 276 nM
TGI [26]: 3410 nM
GI50 [27]: 516 nM
TGI [27]: 6650 nM
TGI [28]: 7160 nM
TGI [29]: 10800 nM
GI50 [30]: 455 nM
TGI [30]: 7780 nM
GI50 [31]: 24.1 nM
TGI [31]: 1430 nM
GI50 [32]: 331 nM and 312 nM
TGI [32]: 8490 nM
GI50 [33]: 685 nM and 1500 nM
TGI [33]: 6270 nM
GI50 [34]: 52.8 nM and 29.2 nM
TGI [34]: 3640 nM
TGI [35]: 1800 nM
TGI [36]: 3920 nM
TGI [37]: 10900 nM
GI50 [38]: 327 nM
TGI [38]: 10400 nM
TGI [39]: 5830 nM
GI50 [40]: 82.3 nM
TGI [40]: 7210 nM
TGI [41]: 2530 nM
GI50 [42]: 243 nM
TGI [42]: 8710 nM
GI50 [43]: 115 nM
TGI [43]: 11100 nM
GI50 [44]: 258 nM and 204 nM
TGI [44]: 5590 nM
TGI [45]: 3970 nM
GI50 [46]: 284 nM and 262 nM
TGI [46]: 6780 nM
GI50 [47]: 27.6 nM
TGI [48]: 7650 nM
GI50 [49]: 320 nM and 200 nM
TGI [49]: 4750 nM
TGI [50]: 8670 nM
TGI [51]: 7370 nM
GI50 [52]: 33.4 nM and 23.6 nM
TGI [52]: 11500 nM
TGI [53]: 8230 nM
TGI [54]: 3560 nM
TGI [55]: 2690 nM
TGI [56]: 2370 nM
TGI [57]: 7940 nM
GI50 [58]: 514 nM
TGI [58]: 6480 nM
GI50 [59]: 134 nM
TGI [59]: 616 nM and 5280 nM
GI50 [60]: 798 nM and 372 nM
TGI [60]: 3860 nM
GI50 [61]: 199 nM and 48 nM
TGI [61]: 1720 nM
GI50 [62]: 309 nM and 79.8 nM
TGI [62]: 23200 nM
GI50 [63]: 150 nM
TGI [63]: 2170 nM
TGI [64]: 14300 nM
TGI [65]: 3720 nM
TGI [66]: 1590 nM
GI50 [67]: 75.2 nM and 73.1 nM
TGI [67]: 8820 nM
GI50 [68]: 309 nM and 436 nM
TGI [68]: 7220 nM
